Experimental data from PMC4595979 (Horticulture Research, 2015).

Key:
LOX2:Md:2b (MdLOX2b) = molecular target: T1, LOX2:Md:2b (MdLOX2b) (Malus domestica, UniProt S4ULD7); test: HPLC product analysis; assay type: biochemical; settings: 50 mM sodium phosphate pH 7.5, 25 °C, 0.3 mM substrate
T1 sequence (S4ULD7 1-905): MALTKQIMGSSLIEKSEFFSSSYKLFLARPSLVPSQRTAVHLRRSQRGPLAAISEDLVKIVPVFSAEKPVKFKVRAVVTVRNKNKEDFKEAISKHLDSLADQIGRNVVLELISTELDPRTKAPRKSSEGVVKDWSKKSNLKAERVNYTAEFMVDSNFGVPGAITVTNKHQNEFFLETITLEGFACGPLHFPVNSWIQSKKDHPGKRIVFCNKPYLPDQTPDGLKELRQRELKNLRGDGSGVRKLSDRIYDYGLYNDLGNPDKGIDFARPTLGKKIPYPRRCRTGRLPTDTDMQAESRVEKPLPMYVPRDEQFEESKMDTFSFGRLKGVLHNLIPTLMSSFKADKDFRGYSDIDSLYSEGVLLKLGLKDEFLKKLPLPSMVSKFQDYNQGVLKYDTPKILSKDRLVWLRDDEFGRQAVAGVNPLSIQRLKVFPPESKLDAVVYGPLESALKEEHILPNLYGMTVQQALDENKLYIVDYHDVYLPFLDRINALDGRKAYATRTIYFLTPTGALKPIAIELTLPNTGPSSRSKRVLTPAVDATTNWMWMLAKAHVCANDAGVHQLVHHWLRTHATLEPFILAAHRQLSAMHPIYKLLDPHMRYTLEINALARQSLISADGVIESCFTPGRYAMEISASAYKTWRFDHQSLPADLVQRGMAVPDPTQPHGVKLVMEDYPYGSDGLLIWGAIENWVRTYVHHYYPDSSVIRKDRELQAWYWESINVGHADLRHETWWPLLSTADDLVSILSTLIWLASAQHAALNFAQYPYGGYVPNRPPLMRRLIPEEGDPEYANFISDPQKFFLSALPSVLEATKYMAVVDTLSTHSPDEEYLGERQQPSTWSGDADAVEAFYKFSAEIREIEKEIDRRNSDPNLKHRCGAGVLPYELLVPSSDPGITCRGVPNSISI

LOX2:Md:2a (MdLOX2a) = molecular target: T2, LOX2:Md:2a (MdLOX2a) (Malus domestica, UniProt S4U6N9); test: HPLC product analysis; assay type: biochemical; settings: 50 mM sodium phosphate pH 7.5, 25 °C, 0.3 mM substrate
T2 sequence (S4U6N9 1-906): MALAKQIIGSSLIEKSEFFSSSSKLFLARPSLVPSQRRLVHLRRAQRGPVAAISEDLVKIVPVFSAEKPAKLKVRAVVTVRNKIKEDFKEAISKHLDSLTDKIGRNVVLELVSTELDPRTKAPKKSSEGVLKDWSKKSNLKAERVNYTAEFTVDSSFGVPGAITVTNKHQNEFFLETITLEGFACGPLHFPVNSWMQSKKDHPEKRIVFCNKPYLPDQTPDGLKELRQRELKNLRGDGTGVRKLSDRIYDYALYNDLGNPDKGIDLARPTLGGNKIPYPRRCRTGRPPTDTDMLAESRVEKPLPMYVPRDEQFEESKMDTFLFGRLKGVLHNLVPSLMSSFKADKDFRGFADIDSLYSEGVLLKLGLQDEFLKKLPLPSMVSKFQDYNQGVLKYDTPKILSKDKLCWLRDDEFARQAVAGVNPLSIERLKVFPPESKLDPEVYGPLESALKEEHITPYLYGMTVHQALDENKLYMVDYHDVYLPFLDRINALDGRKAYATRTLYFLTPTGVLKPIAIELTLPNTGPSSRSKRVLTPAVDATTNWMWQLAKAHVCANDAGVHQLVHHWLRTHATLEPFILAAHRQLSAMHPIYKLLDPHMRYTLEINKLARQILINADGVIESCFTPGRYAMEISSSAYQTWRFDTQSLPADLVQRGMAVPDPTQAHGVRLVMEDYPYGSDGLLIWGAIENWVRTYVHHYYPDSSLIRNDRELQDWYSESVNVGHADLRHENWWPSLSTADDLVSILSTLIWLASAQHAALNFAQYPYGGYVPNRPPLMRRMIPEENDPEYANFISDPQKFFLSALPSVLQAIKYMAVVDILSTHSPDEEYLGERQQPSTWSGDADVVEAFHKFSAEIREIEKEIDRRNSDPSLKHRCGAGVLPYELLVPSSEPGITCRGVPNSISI

SMILES | HPLC product analysis (SP-HPLC, CP-HPLC) (LOX2:Md:2b (MdLOX2b)) | HPLC product analysis (SP-HPLC, CP-HPLC) (LOX2:Md:2a (MdLOX2a))
CCCCC/C=C\C/C=C\CCCCCCCC(=O)O [linoleic acid] | LOX2:Md:2a and LOX2:Md:2b converted LA and LnA predominantly to 13-hydroperoxides | LOX2:Md:2a and LOX2:Md:2b converted LA and LnA predominantly to 13-hydroperoxides
CC/C=C\C/C=C\C/C=C\CCCCCCCC(=O)O [α-linolenic acid] | LOX2:Md:2a and LOX2:Md:2b converted LA and LnA predominantly to 13-hydroperoxides | LOX2:Md:2a and LOX2:Md:2b converted LA and LnA predominantly to 13-hydroperoxides
